# Laboratory results: the supplement of paper PMC10307832
# Columns and labels:
# Test in all cases: relative viability (nuclei count vs DMSO), 5 days (fraction); higher = more cells survive
# [1] = tested on: COR-L23
# Procedure, shortened: (§1)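 Lung cancer cell lines in 1536-well plates got either a single drug or a fixed anchor-drug dose together with five library-drug doses (not always all listed) in √10 steps, by pin tool, on the day after seeding. Nuclei were counted after 5 days, and relative viability is the treated-to-vehicle ratio of nuclei counts. Values are medians of duplicate plates.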
# [2] = tested on: NCI-H23
# Procedure, shortened: as §1
# [3] = tested on: NCI-H647
# Procedure, shortened: as §1
# [4] = tested on: LC-2-ad
# Procedure, shortened: as §1
# [5] = tested on: NCI-H1993
# Procedure, shortened: as §1
# [6] = tested on: HOP-62
# Procedure, shortened: as §1
# [7] = tested on: ABC-1
# Procedure, shortened: as §1
# [8] = tested on: NCI-H520
# Procedure, shortened: as §1
# [9] = tested on: NCI-H2347
# Procedure, shortened: as §1
# [10] = tested on: HCC-44
# Procedure, shortened: as §1
# [11] = tested on: NCI-H838
# Procedure, shortened: as §1
# [12] = tested on: NCI-H2085
# Procedure, shortened: as §1
# [13] = tested on: NCI-H1355
# Procedure, shortened: as §1
# [14] = tested on: NCI-H661
# Procedure, shortened: as §1
# [15] = tested on: NCI-H1395
# Procedure, shortened: as §1
# [16] = tested on: CAL-12T
# Procedure, shortened: as §1
# [17] = tested on: 201T
# Procedure, shortened: as §1
# [18] = tested on: NCI-H1666
# Procedure, shortened: as §1
# [19] = tested on: NCI-H322M
# Procedure, shortened: as §1
# [20] = tested on: NCI-H2170
# Procedure, shortened: as §1
# [21] = tested on: NCI-H2228
# Procedure, shortened: as §1
# [22] = tested on: NCI-H1651
# Procedure, shortened: as §1
smiles,measurement,setting,value
CCCCCCCCCCCC1=C(O)C(=O)C=C(O)C1=O [Embelin] + CS(=O)(=O)CCNCc1ccc(-c2ccc3ncnc(Nc4ccc(OCc5cccc(F)c5)c(Cl)c4)c3c2)o1 [Lapatinib] (partner 2 µM),relative viability,[1]; first compound 0.08 µM,0.927
same,relative viability,[1]; first compound 0.8 µM,0.966
same,relative viability,[1]; first compound 2.53 µM,1.34
same,relative viability,[1]; first compound 8 µM,1.09
same,relative viability,[2]; first compound 0.08 µM,1.17
same,relative viability,[2]; first compound 0.8 µM,1.2
same,relative viability,[2]; first compound 2.53 µM,1.36
same,relative viability,[2]; first compound 8 µM,1.07
same,relative viability,[3]; first compound 0.08 µM,1.08
same,relative viability,[3]; first compound 0.8 µM,1.38
same,relative viability,[3]; first compound 2.53 µM,1.89
same,relative viability,[3]; first compound 8 µM,1.17
same,relative viability,[4]; first compound 0.08 µM,0.96
same,relative viability,[4]; first compound 0.8 µM,1.16
same,relative viability,[4]; first compound 2.53 µM,1.07
same,relative viability,[4]; first compound 8 µM,0.983
same,relative viability,[5]; first compound 0.08 µM,0.845
same,relative viability,[5]; first compound 0.8 µM,0.777
same,relative viability,[5]; first compound 2.53 µM,0.803
same,relative viability,[5]; first compound 8 µM,0.834
same,relative viability,[6]; first compound 0.08 µM,1.01
same,relative viability,[6]; first compound 0.8 µM,1.08
same,relative viability,[6]; first compound 2.53 µM,1.1
same,relative viability,[6]; first compound 8 µM,0.908
same,relative viability,[7]; first compound 0.08 µM,1.28
same,relative viability,[7]; first compound 0.8 µM,1.7
same,relative viability,[7]; first compound 2.53 µM,1.25
same,relative viability,[7]; first compound 8 µM,1.1
same,relative viability,[8]; first compound 0.08 µM,0.946
same,relative viability,[8]; first compound 0.8 µM,0.729
same,relative viability,[8]; first compound 2.53 µM,0.936
same,relative viability,[8]; first compound 8 µM,0.862
same,relative viability,[9]; first compound 0.08 µM,1.02
same,relative viability,[9]; first compound 0.8 µM,0.929
same,relative viability,[9]; first compound 2.53 µM,0.968
same,relative viability,[9]; first compound 8 µM,0.969
same,relative viability,[10]; first compound 0.08 µM,1.03
same,relative viability,[10]; first compound 0.8 µM,1.02
same,relative viability,[10]; first compound 2.53 µM,1.15
same,relative viability,[10]; first compound 8 µM,0.908
same,relative viability,[11]; first compound 0.08 µM,1.07
same,relative viability,[11]; first compound 0.8 µM,1.31
same,relative viability,[11]; first compound 2.53 µM,1.02
same,relative viability,[11]; first compound 8 µM,1.14
same,relative viability,[12]; first compound 0.08 µM,0.743
same,relative viability,[12]; first compound 0.8 µM,0.92
same,relative viability,[12]; first compound 2.53 µM,0.778
same,relative viability,[12]; first compound 8 µM,0.731
same,relative viability,[13]; first compound 0.08 µM,0.878
same,relative viability,[13]; first compound 0.8 µM,1.15
same,relative viability,[13]; first compound 2.53 µM,1.07
same,relative viability,[13]; first compound 8 µM,0.686
same,relative viability,[14]; first compound 0.08 µM,0.467
same,relative viability,[14]; first compound 0.8 µM,0.596
same,relative viability,[14]; first compound 2.53 µM,0.545
same,relative viability,[14]; first compound 8 µM,0.48
same,relative viability,[15]; first compound 0.08 µM,1.11
same,relative viability,[15]; first compound 0.8 µM,1.27
same,relative viability,[15]; first compound 2.53 µM,0.99
same,relative viability,[15]; first compound 8 µM,0.754
same,relative viability,[16]; first compound 0.08 µM,0.757
same,relative viability,[16]; first compound 0.8 µM,0.878
same,relative viability,[16]; first compound 8 µM,0.703
same,relative viability,[17]; first compound 0.08 µM,1.03
same,relative viability,[17]; first compound 0.8 µM,1.04
same,relative viability,[17]; first compound 2.53 µM,1
same,relative viability,[17]; first compound 8 µM,0.99
same,relative viability,[18]; first compound 0.08 µM,0.603
same,relative viability,[18]; first compound 0.8 µM,0.795
same,relative viability,[18]; first compound 2.53 µM,0.761
same,relative viability,[18]; first compound 8 µM,0.616
same,relative viability,[19]; first compound 0.08 µM,0.548
same,relative viability,[19]; first compound 0.8 µM,0.614
same,relative viability,[19]; first compound 2.53 µM,0.726
same,relative viability,[19]; first compound 8 µM,0.561
same,relative viability,[20]; first compound 0.08 µM,0.276
same,relative viability,[20]; first compound 0.8 µM,0.282
same,relative viability,[20]; first compound 2.53 µM,0.275
same,relative viability,[20]; first compound 8 µM,0.253
same,relative viability,[21]; first compound 0.08 µM,1.36
same,relative viability,[21]; first compound 0.8 µM,1.1
same,relative viability,[21]; first compound 2.53 µM,1.41
same,relative viability,[21]; first compound 8 µM,1.08
same,relative viability,[22]; first compound 0.08 µM,0.789
same,relative viability,[22]; first compound 0.8 µM,0.974
same,relative viability,[22]; first compound 2.53 µM,0.99
same,relative viability,[22]; first compound 8 µM,0.824
